Measurements reported in patent US9980943B2, “Methods of treating muscular dystrophy” (BOARD OF REGENTS OF THE NEVADA SYSTEM OF HIGHER EDUCATION, …, priority 2013, dated 2018).

Key:
Assay type in all cases: cell-based, mouse
[1] = tested on: α7 integrin (LacZ reporter in α7+/LacZ myotubes); test: Myotube α7 integrin FDG assay (Burkin assay in myotubes, 96-well); settings: for Burkin Assay in Myotubes, value relative to DMSO: SU9516 analogs, 96-well, N=3-6
[2] = tested on: β-galactosidase in CMV-LacZ C2C12 myoblasts; test: CMV-LacZ secondary screen in C2C12 myoblasts (β-Gal stabilizing assay); settings: for CMV-LACZ in Myoblasts, value relative to DMSO: SU9516 analogs, C2C12 CMV-LacZ, N=2; for CMV-LACZ in Myoblasts (β-galactosidase activity relative to DMSO): CMV-LacZ C2C12 myoblasts
Summary of the method: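 First, C2C12 myoblasts were transfected with a linearized CMV-LACZ vector and clonal lines selected by FDG β-gal assay. Then cells were exposed to compounds at 0.5, 1, 5, 10, 20 and 40 μM in 96-well format, two replicates each, and β-gal measured.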

[3] = tested on: β-galactosidase in CMV-LacZ C2C12 myotubes; test: CMV-LacZ secondary screen in C2C12 myotubes (β-Gal stabilizing assay); settings: for CMV-LACZ in Myotubes, value relative to DMSO: SU9516 analogs, C2C12 CMV-LacZ, N=2; for CMV-LACZ in Myotubes, signal relative to DMSO: C2C12 CMV-LacZ myotubes, fold relative to DMSO
Summary of the method: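 CMV-LacZ C2C12 line (clonal, FDG-screened); myoblasts/myotubes dosed 0.5–40 μM (0.5, 1, 5, 10, 20, 40 μM); n=2 per point; β-gal stabilization read-out.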

[4] = tested on: α7 integrin (LacZ reporter in α7βgal+/− myoblasts); test: Myoblast α7+/LacZ integrin FDG assay (Burkin assay in myoblasts, 96-well); settings: 96-well; for Burkin Assay in Myoblasts, value relative to DMSO: SU9516 analogs, N=3-6; for Burkin Assay in Myoblasts, signal relative to DMSO: α7+/LacZ myoblasts

Compound: Cc1ccccc1/C=C1\C(=O)Nc2ccc(F)cc21 [MLS001197838-01]
- Burkin Assay in Myotubes, value relative to DMSO ([1]; 0.5 uM): 1.009
- Burkin Assay in Myotubes, value relative to DMSO ([1]; 1 uM): 0.981
- Burkin Assay in Myotubes, value relative to DMSO ([1]; 5 uM): 1.004
- Burkin Assay in Myotubes, value relative to DMSO ([1]; 10 uM): 1.091
- Burkin Assay in Myotubes, value relative to DMSO ([1]; 20 uM): 0.8699
- Burkin Assay in Myotubes, value relative to DMSO ([1]; 40 uM): 0.9981
- CMV-LACZ in Myoblasts, value relative to DMSO ([2]; 0.5 uM): 0.7904
- CMV-LACZ in Myoblasts, value relative to DMSO ([2]; 1 uM): 0.9954
- CMV-LACZ in Myoblasts, value relative to DMSO ([2]; 5 uM): 1.0010
- CMV-LACZ in Myoblasts, value relative to DMSO ([2]; 10 uM): 1.1118
- CMV-LACZ in Myoblasts, value relative to DMSO ([2]; 20 uM): 1.1615
- CMV-LACZ in Myoblasts, value relative to DMSO ([2]; 40 uM): 0.9437
- CMV-LACZ in Myotubes, value relative to DMSO ([3]; 0.5 uM): 1.0305
- CMV-LACZ in Myotubes, value relative to DMSO ([3]; 1 uM): 1.0038
- CMV-LACZ in Myotubes, value relative to DMSO ([3]; 5 uM): 0.9701
- CMV-LACZ in Myotubes, value relative to DMSO ([3]; 10 uM): 1.1637
- CMV-LACZ in Myotubes, value relative to DMSO ([3]; 20 uM): 0.8547
- CMV-LACZ in Myotubes, value relative to DMSO ([3]; 40 uM): 1.0063
- Burkin Assay in Myoblasts, value relative to DMSO ([4]; 0.5 uM): 1.256
- Burkin Assay in Myoblasts, value relative to DMSO ([4]; 1 uM): 1.198
- Burkin Assay in Myoblasts, value relative to DMSO ([4]; 5 uM): 1.053
- Burkin Assay in Myoblasts, value relative to DMSO ([4]; 10 uM): 1.048
- Burkin Assay in Myoblasts, value relative to DMSO ([4]; 20 uM): 0.8911
- Burkin Assay in Myoblasts, value relative to DMSO ([4]; 40 uM): 0.8648

Compound: Cc1cccc2c(N=Nc3ccc(S(=O)(=O)Nc4ccc(Cl)cc4)cc3[N+](=O)[O-])c(O)[nH]c12 [MLS000393762-01]
- Burkin Assay in Myotubes, α7 integrin LacZ reporter signal relative to DMSO ([1]; 0.5 uM): 0.9402
- Burkin Assay in Myotubes, α7 integrin LacZ reporter signal relative to DMSO ([1]; 1 uM): 0.925
- Burkin Assay in Myotubes, α7 integrin LacZ reporter signal relative to DMSO ([1]; 5 uM): 0.9795
- Burkin Assay in Myotubes, α7 integrin LacZ reporter signal relative to DMSO ([1]; 10 uM): 1.007
- Burkin Assay in Myotubes, α7 integrin LacZ reporter signal relative to DMSO ([1]; 20 uM): 0.7705
- Burkin Assay in Myotubes, α7 integrin LacZ reporter signal relative to DMSO ([1]; 40 uM): 0.7046
- CMV-LACZ in Myoblasts (β-galactosidase activity relative to DMSO) ([2]; 0.5 uM): 0.9560
- CMV-LACZ in Myoblasts (β-galactosidase activity relative to DMSO) ([2]; 1 uM): 0.9351
- CMV-LACZ in Myoblasts (β-galactosidase activity relative to DMSO) ([2]; 5 uM): 1.0114
- CMV-LACZ in Myoblasts (β-galactosidase activity relative to DMSO) ([2]; 10 uM): 1.0198
- CMV-LACZ in Myoblasts (β-galactosidase activity relative to DMSO) ([2]; 20 uM): 0.3793
- CMV-LACZ in Myoblasts (β-galactosidase activity relative to DMSO) ([2]; 40 uM): 0.4467
- CMV-LACZ in Myotubes, signal relative to DMSO ([3]; 0.5 uM): 0.8653
- CMV-LACZ in Myotubes, signal relative to DMSO ([3]; 1 uM): 0.9326
- CMV-LACZ in Myotubes, signal relative to DMSO ([3]; 5 uM): 1.0005
- CMV-LACZ in Myotubes, signal relative to DMSO ([3]; 10 uM): 1.0049
- CMV-LACZ in Myotubes, signal relative to DMSO ([3]; 20 uM): 1.0800
- CMV-LACZ in Myotubes, signal relative to DMSO ([3]; 40 uM): 1.0578
- Burkin Assay in Myoblasts, signal relative to DMSO ([4]; 0.5 uM): 0.9738
- Burkin Assay in Myoblasts, signal relative to DMSO ([4]; 1 uM): 0.9428
- Burkin Assay in Myoblasts, signal relative to DMSO ([4]; 5 uM): 0.7799
- Burkin Assay in Myoblasts, signal relative to DMSO ([4]; 10 uM): 0.6957
- Burkin Assay in Myoblasts, signal relative to DMSO ([4]; 20 uM): 0.5961
- Burkin Assay in Myoblasts, signal relative to DMSO ([4]; 40 uM): 0.4696

Compound: CCOC(=O)C1=C(CC)Nc2ccccc2N=C1NC(=O)c1ccc(OC)c(S(=O)(=O)N2CCCCC2C)c1 (stereo not drawn) [MLS000776409-01]
- Burkin Assay in Myotubes, α7 integrin LacZ reporter signal relative to DMSO ([1]; 0.5 uM): 0.8925
- Burkin Assay in Myotubes, α7 integrin LacZ reporter signal relative to DMSO ([1]; 1 uM): 1.029
- Burkin Assay in Myotubes, α7 integrin LacZ reporter signal relative to DMSO ([1]; 5 uM): 0.882
- Burkin Assay in Myotubes, α7 integrin LacZ reporter signal relative to DMSO ([1]; 10 uM): 0.9284
- Burkin Assay in Myotubes, α7 integrin LacZ reporter signal relative to DMSO ([1]; 20 uM): 0.8949
- Burkin Assay in Myotubes, α7 integrin LacZ reporter signal relative to DMSO ([1]; 40 uM): 0.8056
- CMV-LACZ in Myoblasts (β-galactosidase activity relative to DMSO) ([2]; 0.5 uM): 1.1220
- CMV-LACZ in Myoblasts (β-galactosidase activity relative to DMSO) ([2]; 1 uM): 0.9103
- CMV-LACZ in Myoblasts (β-galactosidase activity relative to DMSO) ([2]; 5 uM): 0.8929
- CMV-LACZ in Myoblasts (β-galactosidase activity relative to DMSO) ([2]; 10 uM): 0.9052
- CMV-LACZ in Myoblasts (β-galactosidase activity relative to DMSO) ([2]; 20 uM): 1.3344
- CMV-LACZ in Myoblasts (β-galactosidase activity relative to DMSO) ([2]; 40 uM): 0.2105
- CMV-LACZ in Myotubes, signal relative to DMSO ([3]; 0.5 uM): 1.0552
- CMV-LACZ in Myotubes, signal relative to DMSO ([3]; 1 uM): 0.9752
- CMV-LACZ in Myotubes, signal relative to DMSO ([3]; 5 uM): 1.0186
- CMV-LACZ in Myotubes, signal relative to DMSO ([3]; 10 uM): 1.1035
- CMV-LACZ in Myotubes, signal relative to DMSO ([3]; 20 uM): 1.1040
- CMV-LACZ in Myotubes, signal relative to DMSO ([3]; 40 uM): 1.1540
- Burkin Assay in Myoblasts, signal relative to DMSO ([4]; 0.5 uM): 1.1194
- Burkin Assay in Myoblasts, signal relative to DMSO ([4]; 1 uM): 1.007
- Burkin Assay in Myoblasts, signal relative to DMSO ([4]; 5 uM): 0.9389
- Burkin Assay in Myoblasts, signal relative to DMSO ([4]; 10 uM): 0.9838
- Burkin Assay in Myoblasts, signal relative to DMSO ([4]; 20 uM): 0.5087
- Burkin Assay in Myoblasts, signal relative to DMSO ([4]; 40 uM): 0.3444
